Data taken from the kinase profiling compilation of Christmann-Franck et al. (2016).

What was measured:
Test in all cases: radiometric filter-binding kinase assay
[1] = target: CSNK1D (human) (UniProt P48730)
[2] = target: BTK (human) (UniProt Q06187)
[3] = target: CaMK1 (human) (UniProt Q14012)
[4] = target: PAK4 (human) (UniProt O96013)
[5] = target: YES1 (human) (UniProt P07947)
[6] = target: MKNK2 (human) (UniProt Q9HBH9)
[7] = target: MAP3K11 (human) (UniProt Q16584)
[8] = target: MAPK8 (human) (UniProt P45983)
[9] = target: MAPK14 (human) (UniProt Q16539)
[10] = target: MAP2K2 (human) (UniProt P36507)
[11] = target: MAP3K7 TAB1 (human) (UniProt Q15750+O43318)
[12] = target: EPHA4 (human) (UniProt P54764)
[13] = target: PAK7 (human) (UniProt Q9P286)
[14] = target: MELK (human) (UniProt Q14680)
[15] = target: EPHB3 (human) (UniProt P54753)
[16] = target: MINK1 (human) (UniProt Q8N4C8)
[17] = target: MAPKAPK5 (human) (UniProt Q8IW41)
[18] = target: IGF1R (human) (UniProt P08069)
[19] = target: MAPKAPK2 (human) (UniProt P49137)
[20] = target: CSK (human) (UniProt P41240)
[21] = target: DYRK1A (human) (UniProt Q13627)
[22] = target: BRSK1 (human) (UniProt Q8TDC3)
[23] = target: PIM1 (human) (UniProt P11309)
[24] = target: CAMKK2 (human) (UniProt Q96RR4)
[25] = target: IKBKE (human) (UniProt Q14164)
[26] = target: AURKB (human) (UniProt Q96GD4)
[27] = target: RIPK2 (human) (UniProt O43353)
[28] = target: DYRK2 (human) (UniProt Q92630)
[29] = target: PRKACA (human) (UniProt P17612)
[30] = target: HIPK2 (human) (UniProt Q9H2X6)
[31] = target: IKBKB (human) (UniProt O14920)
[32] = target: MAPK12 (human) (UniProt P53778)
[33] = target: MAPK9 (human) (UniProt P45984)
[34] = target: EPHB2 (human) (UniProt P29323)
[35] = target: MAPK15 (human) (UniProt Q8TD08)
MAPK15 (human), sequence (Q8TD08 whole entry, looked up): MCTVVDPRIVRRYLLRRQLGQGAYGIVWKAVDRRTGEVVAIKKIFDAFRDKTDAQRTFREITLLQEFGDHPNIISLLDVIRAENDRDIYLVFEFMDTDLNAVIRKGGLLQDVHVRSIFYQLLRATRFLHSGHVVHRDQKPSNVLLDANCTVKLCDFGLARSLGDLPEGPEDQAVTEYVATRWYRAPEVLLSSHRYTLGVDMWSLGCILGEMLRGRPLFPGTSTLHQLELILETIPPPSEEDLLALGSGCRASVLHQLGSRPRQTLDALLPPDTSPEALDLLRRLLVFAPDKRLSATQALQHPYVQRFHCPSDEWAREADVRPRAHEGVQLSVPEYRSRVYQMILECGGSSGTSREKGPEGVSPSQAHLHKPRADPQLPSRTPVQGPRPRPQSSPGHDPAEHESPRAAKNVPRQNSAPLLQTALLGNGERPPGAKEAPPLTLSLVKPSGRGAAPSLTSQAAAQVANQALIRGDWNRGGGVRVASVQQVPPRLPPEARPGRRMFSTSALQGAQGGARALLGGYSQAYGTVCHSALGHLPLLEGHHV

MAPK12 (human), sequence (P53778 whole entry, looked up): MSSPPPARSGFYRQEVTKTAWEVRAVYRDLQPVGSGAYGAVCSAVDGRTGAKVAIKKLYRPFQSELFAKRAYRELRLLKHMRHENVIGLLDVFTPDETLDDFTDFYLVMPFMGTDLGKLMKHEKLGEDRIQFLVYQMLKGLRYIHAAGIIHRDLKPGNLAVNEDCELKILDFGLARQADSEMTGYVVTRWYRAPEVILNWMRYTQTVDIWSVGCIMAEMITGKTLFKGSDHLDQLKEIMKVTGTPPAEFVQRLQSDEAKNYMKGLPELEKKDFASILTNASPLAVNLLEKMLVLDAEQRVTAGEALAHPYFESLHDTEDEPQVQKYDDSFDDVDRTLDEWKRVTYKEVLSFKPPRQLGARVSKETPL
EPHB2 (human), sequence (P29323 whole entry, looked up): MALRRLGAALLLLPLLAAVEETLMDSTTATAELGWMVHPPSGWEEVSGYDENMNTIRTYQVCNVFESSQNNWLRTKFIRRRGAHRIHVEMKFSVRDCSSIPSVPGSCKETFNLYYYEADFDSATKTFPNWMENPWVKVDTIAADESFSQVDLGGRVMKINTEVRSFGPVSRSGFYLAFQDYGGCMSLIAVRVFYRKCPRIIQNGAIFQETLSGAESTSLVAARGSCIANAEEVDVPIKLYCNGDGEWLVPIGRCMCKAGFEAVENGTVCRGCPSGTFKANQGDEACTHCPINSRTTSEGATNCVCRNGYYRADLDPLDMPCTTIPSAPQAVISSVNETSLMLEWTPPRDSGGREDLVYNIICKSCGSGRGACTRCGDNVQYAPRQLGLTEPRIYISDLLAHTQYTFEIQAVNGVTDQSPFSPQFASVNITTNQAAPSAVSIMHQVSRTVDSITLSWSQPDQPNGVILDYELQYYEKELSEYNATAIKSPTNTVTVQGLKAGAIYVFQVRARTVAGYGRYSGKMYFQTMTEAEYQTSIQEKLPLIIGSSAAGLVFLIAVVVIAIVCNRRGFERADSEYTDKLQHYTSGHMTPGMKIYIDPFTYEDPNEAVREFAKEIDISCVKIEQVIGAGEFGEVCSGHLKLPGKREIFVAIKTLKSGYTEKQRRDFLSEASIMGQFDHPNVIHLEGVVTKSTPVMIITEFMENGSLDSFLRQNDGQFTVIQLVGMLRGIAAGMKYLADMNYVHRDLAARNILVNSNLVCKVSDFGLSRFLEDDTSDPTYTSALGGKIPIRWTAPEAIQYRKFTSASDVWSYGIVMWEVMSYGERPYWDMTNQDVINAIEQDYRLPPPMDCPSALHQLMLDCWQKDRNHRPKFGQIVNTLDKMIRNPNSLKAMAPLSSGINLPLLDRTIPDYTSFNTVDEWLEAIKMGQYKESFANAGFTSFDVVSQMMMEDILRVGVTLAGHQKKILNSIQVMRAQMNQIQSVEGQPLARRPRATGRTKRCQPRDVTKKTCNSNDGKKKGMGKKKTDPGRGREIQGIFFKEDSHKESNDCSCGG
MAPK14 (human), sequence (Q16539 whole entry, looked up): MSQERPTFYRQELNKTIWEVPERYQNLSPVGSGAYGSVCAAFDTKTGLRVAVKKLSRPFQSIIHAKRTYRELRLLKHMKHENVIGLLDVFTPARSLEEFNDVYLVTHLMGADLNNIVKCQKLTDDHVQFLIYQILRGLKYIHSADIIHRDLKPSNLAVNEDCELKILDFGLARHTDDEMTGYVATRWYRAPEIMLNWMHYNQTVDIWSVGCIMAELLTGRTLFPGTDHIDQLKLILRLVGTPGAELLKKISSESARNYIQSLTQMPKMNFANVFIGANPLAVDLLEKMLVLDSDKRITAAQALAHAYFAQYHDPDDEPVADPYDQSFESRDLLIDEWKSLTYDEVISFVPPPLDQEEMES
PAK7 (human), sequence (Q9P286 whole entry, looked up): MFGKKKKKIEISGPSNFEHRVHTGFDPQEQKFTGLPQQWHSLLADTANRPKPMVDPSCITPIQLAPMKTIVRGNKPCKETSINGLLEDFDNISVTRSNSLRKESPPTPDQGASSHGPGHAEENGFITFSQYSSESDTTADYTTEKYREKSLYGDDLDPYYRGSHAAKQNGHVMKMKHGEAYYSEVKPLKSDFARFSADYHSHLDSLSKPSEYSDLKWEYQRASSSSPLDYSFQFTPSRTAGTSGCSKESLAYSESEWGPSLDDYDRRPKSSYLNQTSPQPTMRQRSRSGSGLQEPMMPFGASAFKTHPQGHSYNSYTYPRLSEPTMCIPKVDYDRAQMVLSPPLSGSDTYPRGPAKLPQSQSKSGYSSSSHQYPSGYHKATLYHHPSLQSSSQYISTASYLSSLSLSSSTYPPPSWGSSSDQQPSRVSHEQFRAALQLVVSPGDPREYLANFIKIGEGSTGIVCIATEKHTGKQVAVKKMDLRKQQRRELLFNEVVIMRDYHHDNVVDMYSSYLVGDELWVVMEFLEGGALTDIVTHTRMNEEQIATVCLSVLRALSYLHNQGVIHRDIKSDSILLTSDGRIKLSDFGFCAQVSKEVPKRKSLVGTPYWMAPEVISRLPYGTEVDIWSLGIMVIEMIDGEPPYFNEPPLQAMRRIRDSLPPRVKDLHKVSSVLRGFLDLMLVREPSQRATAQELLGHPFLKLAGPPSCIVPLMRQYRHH
MAPK8 (human), sequence (P45983 whole entry, looked up): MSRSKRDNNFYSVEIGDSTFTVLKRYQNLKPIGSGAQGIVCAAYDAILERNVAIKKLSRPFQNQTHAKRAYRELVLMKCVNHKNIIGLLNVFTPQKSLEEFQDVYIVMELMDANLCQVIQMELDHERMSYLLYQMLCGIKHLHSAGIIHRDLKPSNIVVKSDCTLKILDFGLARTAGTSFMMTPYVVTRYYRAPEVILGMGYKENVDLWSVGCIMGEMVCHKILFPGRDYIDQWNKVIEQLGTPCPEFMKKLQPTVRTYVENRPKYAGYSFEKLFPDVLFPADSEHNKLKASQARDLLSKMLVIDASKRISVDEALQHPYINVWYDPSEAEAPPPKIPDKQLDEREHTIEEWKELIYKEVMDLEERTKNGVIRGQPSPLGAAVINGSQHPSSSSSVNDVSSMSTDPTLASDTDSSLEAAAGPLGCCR
IKBKB (human), sequence (O14920 whole entry, looked up): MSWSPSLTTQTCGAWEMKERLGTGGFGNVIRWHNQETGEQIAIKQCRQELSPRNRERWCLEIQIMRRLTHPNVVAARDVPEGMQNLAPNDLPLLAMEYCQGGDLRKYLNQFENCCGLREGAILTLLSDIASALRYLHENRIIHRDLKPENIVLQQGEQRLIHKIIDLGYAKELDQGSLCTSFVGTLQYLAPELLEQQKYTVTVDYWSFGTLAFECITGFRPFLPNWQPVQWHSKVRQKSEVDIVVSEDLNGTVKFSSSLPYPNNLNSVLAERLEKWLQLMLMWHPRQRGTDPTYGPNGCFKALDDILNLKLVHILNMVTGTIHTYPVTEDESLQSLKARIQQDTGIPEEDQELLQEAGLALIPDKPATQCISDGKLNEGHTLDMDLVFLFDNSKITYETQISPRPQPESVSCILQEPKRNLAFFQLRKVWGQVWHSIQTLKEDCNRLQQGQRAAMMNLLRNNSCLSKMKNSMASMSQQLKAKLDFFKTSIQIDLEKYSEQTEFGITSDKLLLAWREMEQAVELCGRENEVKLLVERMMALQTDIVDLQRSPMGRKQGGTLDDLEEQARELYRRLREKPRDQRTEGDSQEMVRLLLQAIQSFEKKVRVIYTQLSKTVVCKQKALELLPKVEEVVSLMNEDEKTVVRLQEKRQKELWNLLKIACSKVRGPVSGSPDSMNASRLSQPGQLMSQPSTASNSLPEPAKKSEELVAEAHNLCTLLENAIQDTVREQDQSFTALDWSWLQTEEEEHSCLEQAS
MAPKAPK2 (human), sequence (P49137 whole entry, looked up): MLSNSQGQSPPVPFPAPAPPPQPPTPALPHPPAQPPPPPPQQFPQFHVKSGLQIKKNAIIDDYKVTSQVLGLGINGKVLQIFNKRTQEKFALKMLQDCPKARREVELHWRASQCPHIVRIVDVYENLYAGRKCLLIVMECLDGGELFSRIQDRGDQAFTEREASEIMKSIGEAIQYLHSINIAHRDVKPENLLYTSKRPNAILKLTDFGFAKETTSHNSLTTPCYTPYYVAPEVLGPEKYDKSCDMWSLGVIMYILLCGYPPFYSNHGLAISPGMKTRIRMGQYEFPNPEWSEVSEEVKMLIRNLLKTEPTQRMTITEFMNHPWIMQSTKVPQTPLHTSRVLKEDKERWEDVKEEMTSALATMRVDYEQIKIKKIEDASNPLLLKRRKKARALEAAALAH
AURKB (human), sequence (Q96GD4 whole entry, looked up): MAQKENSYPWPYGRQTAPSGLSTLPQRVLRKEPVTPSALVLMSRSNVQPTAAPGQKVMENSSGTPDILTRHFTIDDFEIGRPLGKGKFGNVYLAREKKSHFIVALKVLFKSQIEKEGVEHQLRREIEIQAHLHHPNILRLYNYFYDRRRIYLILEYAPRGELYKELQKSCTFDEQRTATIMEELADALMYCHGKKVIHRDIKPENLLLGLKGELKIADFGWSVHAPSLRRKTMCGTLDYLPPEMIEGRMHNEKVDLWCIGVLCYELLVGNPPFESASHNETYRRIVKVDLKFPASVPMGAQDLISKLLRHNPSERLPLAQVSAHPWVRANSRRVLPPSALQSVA

O=C(Nc1ccccc1-c1cn2c(CN3CCNCC3)csc2n1)c1cnc2ccccc2n1 gave a residual activity ([1]; compound 0.1 µM) of 99%, a residual activity ([1]; compound 1.0 µM) of 106% and a residual activity ([1]; compound 10.0 µM) of 91%. The residual activity ([2]; compound 0.1 µM) was 88%, the residual activity ([2]; compound 1.0 µM) was 99% and the residual activity ([2]; compound 10.0 µM) was 79%. It also gave a residual activity ([3]; compound 0.1 µM) of 109%, a residual activity ([3]; compound 1.0 µM) of 83% and a residual activity ([3]; compound 10.0 µM) of 22%. It also gave a residual activity ([4]; compound 0.1 µM) of 83%, a residual activity ([4]; compound 1.0 µM) of 110% and a residual activity ([4]; compound 10.0 µM) of 96%. It also gave a residual activity ([5]; compound 0.1 µM) of 69%, a residual activity ([5]; compound 1.0 µM) of 82% and a residual activity ([5]; compound 10.0 µM) of 80%. The residual activity ([6]; compound 0.1 µM) was 90%, the residual activity ([6]; compound 1.0 µM) was 92% and the residual activity ([6]; compound 10.0 µM) was 96%. It also gave a residual activity ([7]; compound 1.0 µM) of 88%, a residual activity ([7]; compound 10.0 µM) of 56% and a residual activity ([8]; compound 0.1 µM) of 116%. The residual activity ([8]; compound 1.0 µM) was 103%, the residual activity ([8]; compound 10.0 µM) was 86% and the residual activity ([9]; compound 0.1 µM) was 87%. The residual activity ([9]; compound 1.0 µM) was 91%, the residual activity ([9]; compound 10.0 µM) was 99% and the residual activity ([10]; compound 1.0 µM) was 109%. The residual activity ([10]; compound 10.0 µM) was 90%, the residual activity ([11]; compound 1.0 µM) was 91% and the residual activity ([11]; compound 10.0 µM) was 86%. For the same compound, the residual activity ([12]; compound 1.0 µM) was 78%, the residual activity ([12]; compound 10.0 µM) was 76% and the residual activity ([13]; compound 0.1 µM) was 79%. It also gave a residual activity ([13]; compound 1.0 µM) of 91%, a residual activity ([13]; compound 10.0 µM) of 72% and a residual activity ([14]; compound 0.1 µM) of 97%. The residual activity ([14]; compound 1.0 µM) was 74%, the residual activity ([14]; compound 10.0 µM) was 52% and the residual activity ([15]; compound 0.1 µM) was 99%. The residual activity ([15]; compound 1.0 µM) was 99%, the residual activity ([15]; compound 10.0 µM) was 90% and the residual activity ([16]; compound 1.0 µM) was 91%. The residual activity ([16]; compound 10.0 µM) was 55%, the residual activity ([17]; compound 0.1 µM) was 101% and the residual activity ([17]; compound 1.0 µM) was 91%. For the same compound, the residual activity ([17]; compound 10.0 µM) was 105%, the residual activity ([18]; compound 0.1 µM) was 92% and the residual activity ([18]; compound 1.0 µM) was 96%. For the same compound, the residual activity ([18]; compound 10.0 µM) was 25%, the residual activity ([19]; compound 0.1 µM) was 90% and the residual activity ([19]; compound 1.0 µM) was 92%. It also gave a residual activity ([19]; compound 10.0 µM) of 59%, a residual activity ([20]; compound 0.1 µM) of 97% and a residual activity ([20]; compound 1.0 µM) of 85%. The residual activity ([20]; compound 10.0 µM) was 97%, the residual activity ([21]; compound 0.1 µM) was 101% and the residual activity ([21]; compound 1.0 µM) was 94%. The residual activity ([21]; compound 10.0 µM) was 58%, the residual activity ([22]; compound 1.0 µM) was 94% and the residual activity ([22]; compound 10.0 µM) was 87%. The residual activity ([23]; compound 0.1 µM) was 40%, the residual activity ([23]; compound 1.0 µM) was 18% and the residual activity ([23]; compound 10.0 µM) was 10%. The residual activity ([24]; compound 0.1 µM) was 92%, the residual activity ([24]; compound 1.0 µM) was 83% and the residual activity ([24]; compound 10.0 µM) was 44%. The residual activity ([25]; compound 0.1 µM) was 90%, the residual activity ([25]; compound 1.0 µM) was 102% and the residual activity ([25]; compound 10.0 µM) was 83%. It also gave a residual activity ([26]; compound 1.0 µM) of 93%, a residual activity ([26]; compound 10.0 µM) of 90% and a residual activity ([27]; compound 1.0 µM) of 100%. For the same compound, the residual activity ([27]; compound 10.0 µM) was 95%, the residual activity ([28]; compound 0.1 µM) was 98% and the residual activity ([28]; compound 1.0 µM) was 94%. It also gave a residual activity ([28]; compound 10.0 µM) of 94%, a residual activity ([29]; compound 0.1 µM) of 80% and a residual activity ([29]; compound 1.0 µM) of 106%. It also gave a residual activity ([29]; compound 10.0 µM) of 84%, a residual activity ([30]; compound 1.0 µM) of 86% and a residual activity ([30]; compound 10.0 µM) of 38%. For the same compound, the residual activity ([31]; compound 0.1 µM) was 84%, the residual activity ([31]; compound 1.0 µM) was 93% and the residual activity ([31]; compound 10.0 µM) was 84%. It also gave a residual activity ([32]; compound 0.1 µM) of 84%, a residual activity ([32]; compound 1.0 µM) of 95% and a residual activity ([32]; compound 10.0 µM) of 92%. It also gave a residual activity ([33]; compound 0.1 µM) of 101%, a residual activity ([33]; compound 1.0 µM) of 93% and a residual activity ([33]; compound 10.0 µM) of 87%. For the same compound, the residual activity ([34]; compound 1.0 µM) was 82%, the residual activity ([34]; compound 10.0 µM) was 84% and the residual activity ([35]; compound 0.1 µM) was 81%. The residual activity ([35]; compound 1.0 µM) was 96% and the residual activity ([35]; compound 10.0 µM) was 86%.

For COc1cc(C(=O)N2CCOCC2)c(F)cc1Nc1ncc(C(F)(F)F)c(NC2CC2)n1, the residual activity ([1]; compound 1.0 µM) was 95%, the residual activity ([1]; compound 10.0 µM) was 67% and the residual activity ([2]; compound 1.0 µM) was 115%. The residual activity ([3]; compound 1.0 µM) was 92%, the residual activity ([3]; compound 10.0 µM) was 51% and the residual activity ([4]; compound 1.0 µM) was 85%. The residual activity ([4]; compound 10.0 µM) was 42%, the residual activity ([5]; compound 1.0 µM) was 89% and the residual activity ([5]; compound 10.0 µM) was 110%. For the same compound, the residual activity ([6]; compound 1.0 µM) was 58%, the residual activity ([6]; compound 10.0 µM) was 22% and the residual activity ([7]; compound 1.0 µM) was 35%. It also gave a residual activity ([7]; compound 10.0 µM) of 9%, a residual activity ([8]; compound 1.0 µM) of 83% and a residual activity ([8]; compound 10.0 µM) of 47%. It also gave a residual activity ([9]; compound 1.0 µM) of 84%, a residual activity ([9]; compound 10.0 µM) of 119% and a residual activity ([10]; compound 1.0 µM) of 118%. For the same compound, the residual activity ([10]; compound 10.0 µM) was 98%, the residual activity ([11]; compound 1.0 µM) was 11% and the residual activity ([11]; compound 10.0 µM) was 2%. The residual activity ([12]; compound 1.0 µM) was 86%, the residual activity ([12]; compound 10.0 µM) was 98% and the residual activity ([13]; compound 1.0 µM) was 94%. It also gave a residual activity ([13]; compound 10.0 µM) of 79%, a residual activity ([14]; compound 1.0 µM) of 91% and a residual activity ([14]; compound 10.0 µM) of 39%. It also gave a residual activity ([15]; compound 1.0 µM) of 91%, a residual activity ([15]; compound 10.0 µM) of 105% and a residual activity ([16]; compound 1.0 µM) of 124%. The residual activity ([16]; compound 10.0 µM) was 109%, the residual activity ([17]; compound 1.0 µM) was 77% and the residual activity ([17]; compound 10.0 µM) was 49%. For the same compound, the residual activity ([18]; compound 1.0 µM) was 35%, the residual activity ([18]; compound 10.0 µM) was 8% and the residual activity ([19]; compound 1.0 µM) was 102%. For the same compound, the residual activity ([19]; compound 10.0 µM) was 97%, the residual activity ([20]; compound 1.0 µM) was 102% and the residual activity ([20]; compound 10.0 µM) was 101%. The residual activity ([21]; compound 1.0 µM) was 78%, the residual activity ([21]; compound 10.0 µM) was 38% and the residual activity ([22]; compound 1.0 µM) was 85%. The residual activity ([22]; compound 10.0 µM) was 69%, the residual activity ([23]; compound 1.0 µM) was 101% and the residual activity ([23]; compound 10.0 µM) was 94%. For the same compound, the residual activity ([24]; compound 1.0 µM) was 40%, the residual activity ([24]; compound 10.0 µM) was 10% and the residual activity ([25]; compound 1.0 µM) was 94%. It also gave a residual activity ([25]; compound 10.0 µM) of 55%, a residual activity ([26]; compound 1.0 µM) of 68% and a residual activity ([26]; compound 10.0 µM) of 24%. For the same compound, the residual activity ([27]; compound 1.0 µM) was 94%, the residual activity ([27]; compound 10.0 µM) was 79% and the residual activity ([28]; compound 1.0 µM) was 40%. For the same compound, the residual activity ([28]; compound 10.0 µM) was 9%, the residual activity ([29]; compound 1.0 µM) was 102% and the residual activity ([30]; compound 1.0 µM) was 70%. The residual activity ([30]; compound 10.0 µM) was 28%, the residual activity ([31]; compound 1.0 µM) was 97% and the residual activity ([31]; compound 10.0 µM) was 89%. The residual activity ([32]; compound 1.0 µM) was 98%, the residual activity ([32]; compound 10.0 µM) was 96% and the residual activity ([33]; compound 1.0 µM) was 108%. The residual activity ([33]; compound 10.0 µM) was 84%, the residual activity ([34]; compound 1.0 µM) was 92% and the residual activity ([34]; compound 10.0 µM) was 97%. For the same compound, the residual activity ([35]; compound 1.0 µM) was 81% and the residual activity ([35]; compound 10.0 µM) was 28%.
